Measured values taken from patent US7064229B2, “Succinic acid derivatives” (Bayer Healthcare AG, priority 2001, dated 2006).

Key:
[1] = biological target: α4β1 integrin (VLA-4) on Ramos cells / recombinant human VCAM-1 (extracellular domains 1–3) (Homo sapiens, UniProt P05556+P13612); assay: Adhesion of Ramos cells to immobilized VCAM-1 (domains 1–3); type: cell-based; design: host or cells: Ramos cells; conditions: Ramos VCAM-1 assay; observed IC50 value ranges
From the text: In Vitro Assay: Adhesion of Ramos Cells to Immobilized VCAM-1 (Domains 1–3) Preparation of VCAM-1 (Extracellular Domains 1–3)
Complementary DNA (cDNA) encoding 7-domain form of VCAM-1 (GenBank accession #M60335) was obtained using Rapid-Screen™ cDNA library panels (OriGene Technologies, Inc) at Takara Gene Analysis Center (Shiga, Japan). The primers used were 5′-CCAAGGCAGAGTACGCAAAC-3′ (sense) and 5′-TGGCAGGTATTATTAAGGAG-3′ (antisense). PCR amplification of the 3-domain VCAM-1 cDNA was perform using Pƒ. DNA polymerase (Stratagene) with the following sets of primers: (U-VCAMdl-3) 5′-CCATATGGTACCTGATCAATTTAAAATCGAGACCACCCCAGAA-3′; (L-VCAMdl-3) 5′-CCATATAGCAATCCTAGGTCCAGGGGAGATCTCAACAGTAAA-3′. PCR cycle was 94° C. for 45 sec, 55° C. for 45 sec, 72° C. for 2 min, repeating 15 cycles. After the purification of the PCR product, the fragment was digested with KpnI-AvrII. The digested fragment was ligated into pBluescript IISK(−) (Strategene), which was linearized by digesting with KpnI-XhoI. The ligation was followed by transformation to a Dam/Dcm methylase-free E. coli strain SCS110 (Strategene) to create the donor plasmid pHH7. To direct VCAM-1 molecule into the insect cell secretory pathway, the VCAM-1 coding sequence was fused to signal peptide sequence of honeybee melittin. The resulting melittin-VCAM fusion was placed in correct orientation to the baculovirus polyhedrin promoter. Baculovirus transfer vector containing first 3-domain form VCAM-1 (pH10) was constructed by ligation of 0.9 kb fragment from AvrII/Klenow/BclI digests of pH7 into SalI/Klenow/BamHI digests of pMelBacB (Invitrogen). […] The recombinant virus was amplified by infection to High-Five™ insect cells for 5–6 days, and virus titer was determined by plaque assay.
High-Five™ insect cells were pelleted in a 225 ml conical tube by centrifugation at 1000 rpm for 5 min. […] Protein concentration was determined by using Coomassie protein assay reagent (Pierce) according to the manufacture's instruction. […]
Preparation of Fluorescence Labeled Ramos Cells […]

Sequence of α4β1 integrin (VLA-4) on Ramos cells / recombinant human VCAM-1 (extracellular domains 1–3) (P13612 34-1032): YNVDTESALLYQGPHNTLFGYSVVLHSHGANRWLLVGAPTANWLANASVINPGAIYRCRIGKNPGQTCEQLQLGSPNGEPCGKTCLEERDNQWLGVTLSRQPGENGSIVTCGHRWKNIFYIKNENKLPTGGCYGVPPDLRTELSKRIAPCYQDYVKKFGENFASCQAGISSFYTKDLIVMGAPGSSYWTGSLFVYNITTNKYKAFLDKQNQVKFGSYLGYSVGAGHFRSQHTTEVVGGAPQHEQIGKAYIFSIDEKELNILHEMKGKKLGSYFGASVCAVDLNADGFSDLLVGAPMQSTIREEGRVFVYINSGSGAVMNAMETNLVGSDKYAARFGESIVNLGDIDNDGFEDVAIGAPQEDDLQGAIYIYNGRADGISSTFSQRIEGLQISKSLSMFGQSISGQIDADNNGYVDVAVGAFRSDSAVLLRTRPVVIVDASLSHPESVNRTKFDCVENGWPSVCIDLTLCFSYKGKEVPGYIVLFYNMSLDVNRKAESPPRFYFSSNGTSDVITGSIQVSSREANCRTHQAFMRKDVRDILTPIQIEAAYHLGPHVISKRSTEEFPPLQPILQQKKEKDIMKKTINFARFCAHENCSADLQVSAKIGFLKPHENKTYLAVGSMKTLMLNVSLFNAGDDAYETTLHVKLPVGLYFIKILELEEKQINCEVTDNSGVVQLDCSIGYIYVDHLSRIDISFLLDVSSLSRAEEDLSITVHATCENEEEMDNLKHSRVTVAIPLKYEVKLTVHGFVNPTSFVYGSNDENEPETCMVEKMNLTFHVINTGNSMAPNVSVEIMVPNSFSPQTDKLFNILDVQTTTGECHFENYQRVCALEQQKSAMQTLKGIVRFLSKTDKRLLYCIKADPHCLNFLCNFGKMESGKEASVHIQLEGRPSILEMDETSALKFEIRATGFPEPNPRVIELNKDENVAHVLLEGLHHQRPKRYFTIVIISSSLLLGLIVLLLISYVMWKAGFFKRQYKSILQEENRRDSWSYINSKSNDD
Sequence of α4β1 integrin (VLA-4) on Ramos cells / recombinant human VCAM-1 (extracellular domains 1–3) (P05556 21-798): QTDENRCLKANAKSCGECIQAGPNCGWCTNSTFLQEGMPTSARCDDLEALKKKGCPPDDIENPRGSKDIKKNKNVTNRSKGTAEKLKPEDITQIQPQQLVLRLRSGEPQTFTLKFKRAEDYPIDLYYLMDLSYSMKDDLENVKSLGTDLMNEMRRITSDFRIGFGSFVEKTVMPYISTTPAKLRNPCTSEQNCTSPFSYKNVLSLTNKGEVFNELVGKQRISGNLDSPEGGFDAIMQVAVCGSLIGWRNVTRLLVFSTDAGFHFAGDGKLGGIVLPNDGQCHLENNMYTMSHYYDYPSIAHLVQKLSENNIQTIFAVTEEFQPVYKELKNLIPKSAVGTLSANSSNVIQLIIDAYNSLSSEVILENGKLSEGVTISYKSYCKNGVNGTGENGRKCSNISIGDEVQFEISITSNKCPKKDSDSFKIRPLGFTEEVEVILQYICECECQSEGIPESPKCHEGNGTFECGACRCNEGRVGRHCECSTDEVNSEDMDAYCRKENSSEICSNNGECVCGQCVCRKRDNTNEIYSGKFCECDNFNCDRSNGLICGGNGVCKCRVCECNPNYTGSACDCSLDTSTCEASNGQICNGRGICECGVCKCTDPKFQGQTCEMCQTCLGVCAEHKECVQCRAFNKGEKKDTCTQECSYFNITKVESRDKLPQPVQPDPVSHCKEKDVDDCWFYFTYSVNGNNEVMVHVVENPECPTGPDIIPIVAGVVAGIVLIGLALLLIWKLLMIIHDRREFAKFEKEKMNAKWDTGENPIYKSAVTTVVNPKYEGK

Compound	IC50 [1] [nM]	melting point [°C]
Cc1ccccc1NC(=O)Nc1ccc(NC(=O)CC(C(=O)Nc2ccc(C(=O)O)cc2)c2ccccc2)cc1 (centres unmarked) [Example 2, 4-[(4-{[4-({[(2-Methyl-phenyl)amino]carbonyl}-ami-no)phenyl]amino}-4-oxo-2-phenyl-butanoyl)amino]benzoic acid]	> 10000	–
Cc1ccccc1NC(=O)Nc1ccc(CNC(=O)CC(C(=O)Nc2ccc(C(=O)O)cc2)c2ccccc2)cc1 (centres unmarked) [Example 4, 4-[(4-{[4-({[(2-Methyl-phenyl)amino]carbonyl}-ami-no)benzyl]amino}-4-oxo-2-phenyl-butanoyl)-ami-no]benzoic acid]	< 1000	126
Cc1ccccc1NC(=O)Nc1ccc(NC(=O)C(CC(=O)Nc2ccc(C(=O)O)cc2)c2ccccc2)cc1 (centres unmarked) [Example 1, 4-[(4-{[4-({[(2-Methylphenyl)amino]carbonyl}amino)phenyl]-amino}-4-oxo-3-phenylbutanoyl)amino]benzoic acid]	< 1000	169
